Experimental data: PMC11017388 (ACS Medicinal Chemistry Letters, 2024)
Read-outs that look alike come from different tables or passages of the source.

Key:
[1] = target: T1, FXIIa (Homo sapiens, UniProt P00748); test: Isolated enzyme potency against FXIIa, preincubation time course; details: for IC50: read-out: FXIIa IC50; for Inhibition of FXIIa activity (in words): time course experiments
T1 sequence (P00748 373-615 limits assumed): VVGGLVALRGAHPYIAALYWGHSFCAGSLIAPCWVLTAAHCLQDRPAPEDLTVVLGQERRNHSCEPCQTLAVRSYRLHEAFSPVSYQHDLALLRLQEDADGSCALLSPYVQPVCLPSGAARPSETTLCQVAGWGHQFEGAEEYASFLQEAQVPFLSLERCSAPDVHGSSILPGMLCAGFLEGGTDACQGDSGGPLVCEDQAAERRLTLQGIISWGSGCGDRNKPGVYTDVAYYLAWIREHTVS
Description: (§1) Isolated enzyme potency was determined against PKa and FXIIa, using FXIIa as a test for the selective binding interaction with PKa.

[2] = Stability in DMSO and aqueous media (LCMS observation); format: physicochemical; details: protodeborylation observed by LCMS
[3] = target: plasma kallikrein (PKa) (Homo sapiens, UniProt P03952); test: Isolated enzyme potency against PKa, IC50 after enzyme/inhibitor preincubation time course; details: for Inhibition of PKa (in words): preincubation time course
plasma kallikrein (PKa), sequence (P03952 391-638 limits assumed): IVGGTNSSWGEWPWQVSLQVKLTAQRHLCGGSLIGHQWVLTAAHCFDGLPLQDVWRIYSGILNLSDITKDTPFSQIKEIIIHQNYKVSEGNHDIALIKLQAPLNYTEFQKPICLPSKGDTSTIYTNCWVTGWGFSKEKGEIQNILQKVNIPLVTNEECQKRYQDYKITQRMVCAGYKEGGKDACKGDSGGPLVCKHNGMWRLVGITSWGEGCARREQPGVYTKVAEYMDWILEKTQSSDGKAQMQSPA
plasma kallikrein (PKa), sequence (P03952 20-390 partner limits assumed): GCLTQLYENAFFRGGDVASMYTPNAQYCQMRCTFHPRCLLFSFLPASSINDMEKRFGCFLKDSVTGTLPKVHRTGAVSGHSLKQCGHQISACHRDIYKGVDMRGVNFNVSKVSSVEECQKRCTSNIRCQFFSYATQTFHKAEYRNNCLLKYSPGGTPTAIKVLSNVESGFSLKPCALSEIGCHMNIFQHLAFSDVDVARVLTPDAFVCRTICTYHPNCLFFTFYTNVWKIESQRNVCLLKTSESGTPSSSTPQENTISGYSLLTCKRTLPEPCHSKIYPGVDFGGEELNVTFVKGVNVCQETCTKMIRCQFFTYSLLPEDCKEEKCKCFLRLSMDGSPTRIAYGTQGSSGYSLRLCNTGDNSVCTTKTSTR
Description: as §1

[4] = target: FXIa (Homo sapiens, UniProt P03951); test: Time-dependent potency determination against FXIa; format: biochemical
FXIa, sequence (P03951 388-625 limits assumed): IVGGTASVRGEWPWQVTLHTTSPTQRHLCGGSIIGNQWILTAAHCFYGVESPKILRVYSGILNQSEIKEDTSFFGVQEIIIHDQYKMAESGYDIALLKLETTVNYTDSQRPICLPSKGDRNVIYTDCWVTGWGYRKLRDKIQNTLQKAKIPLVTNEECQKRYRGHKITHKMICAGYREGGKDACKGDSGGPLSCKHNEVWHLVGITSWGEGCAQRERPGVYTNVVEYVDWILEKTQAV
FXIa, sequence (P03951 19-387 partner limits assumed): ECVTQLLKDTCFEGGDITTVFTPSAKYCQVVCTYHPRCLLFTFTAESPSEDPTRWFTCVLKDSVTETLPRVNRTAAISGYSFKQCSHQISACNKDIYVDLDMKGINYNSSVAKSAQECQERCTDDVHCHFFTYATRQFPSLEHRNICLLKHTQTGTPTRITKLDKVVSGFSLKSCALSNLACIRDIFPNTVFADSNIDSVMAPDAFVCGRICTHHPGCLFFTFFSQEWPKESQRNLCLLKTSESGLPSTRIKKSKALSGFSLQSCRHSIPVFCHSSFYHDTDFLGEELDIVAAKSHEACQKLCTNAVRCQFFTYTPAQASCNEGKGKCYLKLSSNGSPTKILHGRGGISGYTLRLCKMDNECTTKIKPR
Description: S5: Pharmacology: Material and Methods :

[5] = target: T2, PKa (Homo sapiens, UniProt P03952); test: Compound dissociation assay (jump dilution); details: 62.5-fold dilution after 10 min preincubation; monitored over 600 s with fluorogenic substrate
T2 sequence (P03952 391-638 limits assumed): as the sequence (P03952 391-638 limits assumed) above
T2 sequence (P03952 20-390 partner limits assumed): as the sequence (P03952 20-390 partner limits assumed) above

[6] = test system: Trypsin; test: Time-dependent potency determination against trypsin; details: read-out: Trypsin IC50
Description: (§2) Time-dependent potency determination was carried out against FXIa, thrombin, trypsin, and plasmin to further evaluate the selectivity of compounds (Table 3).

[7] = target: Plasmin (Homo sapiens, UniProt P00747); test: Time-dependent potency determination against plasmin
Plasmin, sequence (P00747 581-810 limits assumed, species assumed): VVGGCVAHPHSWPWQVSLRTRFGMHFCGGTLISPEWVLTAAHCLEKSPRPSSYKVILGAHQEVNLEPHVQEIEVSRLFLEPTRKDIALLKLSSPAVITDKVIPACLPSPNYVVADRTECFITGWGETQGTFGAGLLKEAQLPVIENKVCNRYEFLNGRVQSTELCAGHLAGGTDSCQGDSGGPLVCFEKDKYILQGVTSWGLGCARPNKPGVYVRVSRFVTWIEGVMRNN
Plasmin, sequence (P00747 97-580 partner limits assumed, species assumed): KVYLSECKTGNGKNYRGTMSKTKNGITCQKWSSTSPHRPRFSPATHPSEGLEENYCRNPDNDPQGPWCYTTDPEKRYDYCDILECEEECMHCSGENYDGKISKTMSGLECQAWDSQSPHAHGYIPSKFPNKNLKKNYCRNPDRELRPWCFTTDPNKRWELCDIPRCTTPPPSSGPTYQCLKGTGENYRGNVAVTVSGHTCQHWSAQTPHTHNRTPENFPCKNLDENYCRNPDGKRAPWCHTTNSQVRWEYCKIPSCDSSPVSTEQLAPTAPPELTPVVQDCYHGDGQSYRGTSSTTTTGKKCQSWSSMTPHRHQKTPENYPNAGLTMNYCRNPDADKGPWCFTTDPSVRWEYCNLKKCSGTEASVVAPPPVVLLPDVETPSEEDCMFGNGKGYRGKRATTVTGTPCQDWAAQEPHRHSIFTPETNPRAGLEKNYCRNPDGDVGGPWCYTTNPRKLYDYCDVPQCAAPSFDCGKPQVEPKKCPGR
Description: as §2

[8] = target: Thrombin (Homo sapiens, UniProt P00734); test: Time-dependent potency determination against thrombin
Description: as §2

[9] = target: phosophodiesterase 4 (PDE4) enzyme; parameters: method as in PMID 19303290; details: read-out: potency; cited from earlier work
[10] = parameters: method as in PMID 34282650; details: 150 mg daily dose, clinical studies; cited from earlier work
[11] = NMR stability study of pinacol boronate in PBS buffer; format: physicochemical; details: pH7.4 phosphate buffer (D2O)
Description: Molecular docking experiments were conducted to visualize the potential binding mode of 20. However, it soon became apparent that the pinacol boronate group was too large to fit into the Ser195 subpocket. Having previously experienced hydrolysis of the pinacol boronate during purification, model substrate 17b was used to study the stability of the pinacol boronate in PBS buffer by NMR (see Supporting Information Figure S1).

[12] = target: T2, PKa; details: competitive, reversible inhibitor; cited from earlier work
[13] = read-out: PKa IC50, 5 min preincubation
[14] = read-out: PKa IC50, 60 min preincubation
[15] = Plasmin IC50, 1 min preincubation
[16] = Plasmin IC50, 10 min preincubation
[17] = Plasmin IC50, 60 min preincubation
[18] = read-out: Thrombin IC50, 10 min preincubation
[19] = read-out: Thrombin IC50, 60 min preincubation
[20] = read-out: PKa IC50, 1 min preincubation
[21] = read-out: PKa IC50, 10 min preincubation

Compound | IC50 [3, 14] | IC50 ([4]; 1 min preincubation) | IC50 ([4]; 10 min preincubation) | IC50 ([4]; 60 min preincubation) | IC50 [7, 15] | IC50 [7, 16] | IC50 [7, 17] | IC50 [8] | IC50 [8, 18] | IC50 [8, 19] | IC50 [3, 20] | IC50 [3, 21] | also measured
CC1(C)OB(C(NC(=O)c2cnn(Cc3ccccc3)c2)c2cccc(Cl)c2)OC1(C)C (centres unmarked) [Compound 17a] |  |  |  |  |  |  |  |  |  |  |  |  | IC50 ([1]; 5 min preincubation): > 400 µM; IC50 ([1]; 60 min preincubation): > 400 µM
O=C(NC(B(O)O)c1cccc(Cl)c1)c1cnn(Cc2ccccc2)c1 (centres unmarked) [Compound 18] | > 400000 nM |  |  |  |  |  |  |  |  |  |  |  | Stability in DMSO / aqueous media [2]: instability in DMSO and aqueous media; IC50 ([1]; 5 min preincubation): > 400 µM; IC50 ([1]; 60 min preincubation): > 400 µM; Inhibition of FXIIa activity (in words) [1]: no activity; Inhibition of PKa (in words) [3]: no activity; IC50 [3, 13]: > 400000 nM
Cc1ccc(CNC(=O)c2cnn(Cc3ccc(Cn4cccn4)cc3)c2)c(F)c1 [Compound 26] | 196 nM | > 40 µM | > 40 µM | > 40 µM | > 40 µM | > 40 µM | > 40 µM | > 40 µM | > 40 µM | > 40 µM | 199 nM | 203 nM | Inhibitor dissociation from PKa [5]: rapid dissociation; IC50 ([6]; 1 min preincubation): > 40 µM; IC50 ([6]; 10 min preincubation): > 40 µM; IC50 ([6]; 60 min preincubation): > 40 µM
N#Cc1ccc(Oc2ccc3c(c2)COB3O)cc1 [Crisaborole] |  |  |  |  |  |  |  |  |  |  |  |  | IC50 [9]: 0.49 µM
CC1(C)OB(C(NC(=O)c2cnn(Cc3ccc(Cn4cccn4)cc3)c2)c2cccc(Cl)c2)OC1(C)C (centres unmarked) [Compound 19] |  | > 40 µM | > 40 µM | > 40 µM | > 40 µM | > 40 µM | > 40 µM | > 40 µM | > 40 µM | > 40 µM |  |  | 
O=C(NCc1cccc(Cl)c1)c1cnn(Cc2ccc(Cn3cccn3)cc2)c1 [Compound 24] | > 40000 nM | > 40 µM | > 40 µM | > 40 µM | > 40 µM | > 40 µM | > 40 µM | > 40 µM | > 40 µM | > 40 µM | > 40000 nM | > 40000 nM | Inhibitor dissociation from PKa [5]: rapid dissociation; IC50 ([6]; 1 min preincubation): > 40 µM; IC50 ([6]; 10 min preincubation): > 40 µM; IC50 ([6]; 60 min preincubation): > 40 µM; Inhibition of PKa (in words) [3]: no PKa inhibition
CC1(C)OB(C(N)c2cccc(Cl)c2)OC1(C)C.Cl (centres unmarked) [Compound 15a] | > 400000 nM |  |  |  |  |  |  |  |  |  |  |  | Stability in DMSO / aqueous media [2]: unstable over time in DMSO; IC50 ([1]; 5 min preincubation): > 400 µM; IC50 ([1]; 60 min preincubation): > 400 µM; Inhibition of PKa (in words) [3]: no activity; IC50 [3, 13]: > 400000 nM
Cc1ccc(CNC(=O)c2cnn(Cc3ccc(Cn4ccccc4=O)cc3)c2)c(F)c1 [Compound 27] | 35 nM |  |  |  |  |  |  |  |  |  | 37 nM | 37 nM | 
Cc1ccc(C(NC(=O)c2cnn(Cc3ccc(Cn4ccccc4=O)cc3)c2)B2OC(C)(C)C(C)(C)O2)c(F)c1 (centres unmarked) [Compound 21] | 1.9 nM |  |  |  |  |  |  |  |  |  | 94 nM | 17 nM | 
Cc1ccc(C(CC(=O)c2cnn(Cc3ccc(Cn4cccn4)cc3)c2)B2OC(C)(C)C(C)(C)O2)c(F)c1 (centres unmarked) [Compound 32] |  | > 40 µM | > 40 µM | > 40 µM | > 40 µM | > 40 µM | > 40 µM | > 40 µM | > 40 µM | > 40 µM |  |  | 
N#Cc1cccc([C@@H](NCC2CC2)c2ccc(F)c(NC(=O)c3cc(C(F)(F)F)nn3-c3cccc(CN)c3)c2)c1 [berotralstat] |  |  |  |  |  |  |  |  |  |  |  |  | Efficacy as an oral prophylactic for HAE [10]: efficacious
O=C(NCc1cccc(Cl)c1)c1cnn(Cc2ccc(Cn3ccccc3=O)cc2)c1 [Compound 25] | 278 nM |  |  |  |  |  |  |  |  |  | 270 nM | 284 nM | 
Cc1ccc(C(NC(=O)c2cnn(Cc3ccccc3)c2)B2OC(C)(C)C(C)(C)O2)c(F)c1 (centres unmarked) [Compound 17b] |  |  |  |  |  |  |  |  |  |  |  |  | Stability of the pinacol boronate in PBS buffer by NMR [11]: rapidly hydrolyzed; IC50 ([1]; 5 min preincubation): > 400 µM; IC50 ([1]; 60 min preincubation): > 400 µM
CC1(C)OB(C(CC(=O)c2cnn(Cc3ccc(Cn4cccn4)cc3)c2)c2cccc(Cl)c2)OC1(C)C (centres unmarked) [Compound 31] |  | > 40 µM | > 40 µM | > 40 µM | > 40 µM | > 40 µM | > 40 µM | > 40 µM | > 40 µM | > 40 µM |  |  | 
Cc1ccc(C(NC(=O)c2cnn(Cc3ccc(Cn4cccn4)cc3)c2)B2OC(C)(C)C(C)(C)O2)c(F)c1 (centres unmarked) [Compound 20] | 0.3 nM | 18.8 µM | 16.5 µM | 12.2 µM | 22 µM | 19.8 µM | 12.1 µM | > 40 µM | > 40 µM | > 40 µM | 66 nM | 6.9 nM | Inhibitor dissociation from PKa [5]: no apparent reversibility; IC50 ([6]; 1 min preincubation): > 40 µM; IC50 ([6]; 10 min preincubation): > 40 µM; IC50 ([6]; 60 min preincubation): > 40 µM; Inhibition of FXIIa activity (in words) [1]: no effect; IC50 [3]: 0.33 nM; IC50 ([3]; read-out: PKa IC50, 2 h, extended time course): 0.29 nM; IC50 ([3]; read-out: PKa IC50, 24 h): 0.07 nM
O=C(/C=C/c1cccc(Cl)c1)c1cnn(Cc2ccc(Cn3cccn3)cc2)c1 [Compound 29] | > 40000 nM |  |  |  |  |  |  |  |  |  | > 40000 nM | > 40000 nM | 
D-Phe-Pro-Arg-chloromethylketone [Compound 23, reference compound] |  | > 40 µM | > 40 µM | > 40 µM |  |  |  |  |  |  |  |  | IC50 ([7]; read-out: Plasmin IC50, 1 min preincubation): 3.64 µM; IC50 ([7]; read-out: Plasmin IC50, 10 min preincubation): 1.22 µM; IC50 ([7]; read-out: Plasmin IC50, 60 min preincubation): 0.248 µM
Cc1cc(N)nc(C)c1CNC(=O)c1cnn(Cc2ccc(Cn3cccn3)cc2)c1 [Compound 11] |  |  |  |  |  |  |  |  |  |  |  |  | IC50 [12]: 0.002 µM
